Experimental data from patent US9873670B2, “Arylquinoline and analog compounds and use thereof to treat cancer” (UNIVERSITY OF KENTUCKY RESEARCH FOUNDATION, priority 2013, dated 2018).
“Also recorded” adds a separate entry of the source.

Experiments:
LNCaP = experiment: Apoptosis, LNCaP cells; format: cell-based, human; details: 500 nM
Description: (§1) See Hebbar, N., Wang, C. & Rangnekar, V. M. J Cell Phys 227, 3715-3721 (2012) and Shrestha-Bhattarai, T., Hebbar, N. & Rangnekar, V. M. Cancer Cell 24, 3-5 (2013). A total of three independent experiments were performed; and approximately 500 cells were scored in each experiment for apoptosis under a fluorescent microscope. Cell surface GRP78 expression on the cancer cell surface was quantified by FACS analysis in the Flow Cytometry Shared Resource Facility, Markey Cancer Center as previously described. See Hebbar, N., Wang, C. & Rangnekar, V. M. J Cell Phys 227, 3715-3721 (2012).

Par-4 in serum = experiment: Circulating Par-4 in serum of injected mice; format: in vivo, C57BL/6 mice; details: 10 mg/kg intraperitoneal, 24 h
Description: Animal experiments: C57BL/6 mice were injected via the intraperitoneal route with Arylquin 1 (10 mg/kg body weight) or corn oil vehicle, and whole-blood samples were collected 24 h later. Serum was separated from the blood samples, heated at 56° C. to inactivate complement. Aliquots of the mouse serum samples were added to the growth medium (final 20% mouse serum) of normal and cancer cells in culture and tested for induction of ex vivo apoptosis in cancer cells. All animal procedures were performed with University of Kentucky IACUC approval.

vimentin = experiment: Pull-down with biotinylated arylquin to identify target protein; format: binding, mouse (MEFs), human (HEL); details: lysates of MEFs and HEL cells, biotinylated analog
Description: Pull down experiments: To identify the target protein for compound Arylquin 1, pull-down experiments were performed as described previously. See Bargagna-Mohan, P., et al. J Biol Chem 285, 7657-7669 (2010). MEFs or HEL cells (grown to confluence in 15 cm plates) were lysed in […] lysis buffer (40 mM Hepes, pH 7.8; 140 mM NaCl; 10 mM NaF; 10% Glycerol, 1 mM EDTA; 1% Triton 100), and the lysates were pre-cleared at 4° C. for 1 h with 100 μL streptavidin beads (Novagen, Strep-Tactin Superflow Agarose). Binding reactions were performed by incubating the pre-cleared cell lysates with 50 μL beads±25 μg of biotinylated Arylquin 1 at 4° C. for 2 h. The beads were then washed four times with buffer (40 mM Hepes, pH 7.8; 140 mM NaCl; 10 mM NaF; 10% Glycerol, 1 mM EDTA), and bound protein was eluted with 50 μL of 2.5 mM Biotin/PBS. Eluted proteins were resolved by SDS-PAGE and Coomassie blue staining.

PC-3 cells = experiment: Apoptosis, PC-3 cells; format: cell-based, human; details: 500 nM
Description: as §1

vimentin-deficient cells = experiment: Par-4 secretion from vimentin-deficient cells; format: cell-based
[1] = test system: panel of lung tumor cells; experiment: Par-4 secretion from lung tumor cells; format: cell-based
DU145 cells = experiment: Apoptosis, DU145 cells; format: cell-based, human; details: 500 nM
Description: as §1

[2] = test system: normal/immortalized human cells; experiment: Par-4 secretion from normal/immortalized human cells; format: cell-based
Description: In another aspect, the subject technology provides assays for screening test compounds that interfere with vimentin binding to PAR-4 or which cause release of vimentin-bound PAR-4. In a typical assay, cells, such as HEL cells, are seeded onto an appropriate support, such as 60-mm plates containing supplemented growth medium (e.g., supplemented with 0.1% serum) at a desired confluency, such as 40-70% confluency, and treated with the test compound (e.g., 500 nM) or control vehicle. The cells are allowed to grow for a period of time, such as 24 hours, after which the conditioned medium (CM) is concentrated (e.g., concentrated 30× to 100 μl using Millipore tubes (Amicon Ultra centrifugal filters, Ultracel-10K) by 15 min centrifugation at 4500 rpm). The concentrated CM is then subjected to co-immunoprecipitation using detectably labeled PAR-4 and vimentin antibodies in the presence of various concentrations of purified PAR-4 and the precipitated proteins are resolved by SDS-PAGE and analyzed by Western blot analysis. The amount of immunoprecipitated PAR-4-vimentin complex is compared to that of control samples. For example, chemiluminescent signals may be quantified in the BIO-RAD Molecular Imager ChemiDoc XRS+Imaging system using Quantity One software. […]

[3] = test system: normal cells (MEFs, HELs, HBEC, PrE, PrS); experiment: Apoptosis by ICC for active caspase-3, normal cells; format: cell-based, human, mouse
Description: Normal cells (MEFs, HELs, HBEC, PrE, prostate stromal cells PrS) or lung cancer cells (human A549 and H460, mouse LLC1 and KP7B) and prostate cancer cells (PC-3 MM2, DU145, LNCaP) were treated with the indicated amounts (0.5, 1 and 10 μM) of Arylquin 1 or vehicle (V) for 24 h, and apoptosis was determined by ICC for active caspase-3. Data shown represent mean values from three independent experiments±s.d. Asterisks (**) or (*) indicate statistical significance (P<0.0001) or (P<0.001), respectively, by the Student t test.
as §1

[4] = test system: mouse embryonic fibroblast (MEF) cells; experiment: Par-4 secretion from normal mouse fibroblasts (Western blot of conditioned medium); format: cell-based
Description: In another aspect, the subject technology provides assays for screening test compounds that interfere with vimentin binding to PAR-4 or which cause release of vimentin-bound PAR-4. In a typical assay, cells, such as HEL cells, are seeded onto an appropriate support, such as 60-mm plates containing supplemented growth medium (e.g., supplemented with 0.1% serum) at a desired confluency, such as 40-70% confluency, and treated with the test compound (e.g., 500 nM) or control vehicle. The cells are allowed to grow for a period of time, such as 24 hours, after which the conditioned medium (CM) is concentrated (e.g., concentrated 30× to 100 μl using Millipore tubes (Amicon Ultra centrifugal filters, Ultracel-10K) by 15 min centrifugation at 4500 rpm). The concentrated CM is then subjected to co-immunoprecipitation using detectably labeled PAR-4 and vimentin antibodies in the presence of various concentrations of purified PAR-4 and the precipitated proteins are resolved by SDS-PAGE and analyzed by Western blot analysis. The amount of immunoprecipitated PAR-4-vimentin complex is compared to that of control samples. For example, chemiluminescent signals may be quantified in the BIO-RAD Molecular Imager ChemiDoc XRS+Imaging system using Quantity One software. Induction of Par-4 secretion by the test drug (e.g., 500 nM), as judged by this Western blot analysis procedure, will indicate dissociation of Par-4 from vimentin. […] For such experiments, cells may be treated with the test drug (e.g., 500 nM) or vehicle for an appropriate period of time, such as 24 hours, and then cell lysates are prepared and subjected to immunoprecipitation using an appropriate amount of a Par-4 antibody, vimentin antibody or control IgG antibody by using any standard immunoprecipitation procedure. Following […], the complexes are resolved, preferably by Western blot analysis as described above. If the drug inhibits the binding of Par-4 to vimentin, it will be reflected in the lack of co-immunoprecipitation of Par-4 with the vimentin antibody, and co-immunoprecipitation of vimentin with the Par-4 antibody.
Co-Immunoprecipitation and Western blot analysis: Protein extracted from cell lysates was filtered, pre-cleared with 25 μL (bed volume) of protein G-Sepharose beads and immunoprecipitated with 1 μg of respective antibodies. The eluted proteins were resolved by SDS-PAGE, and subjected to Western blot analysis as described.
To identify Par-4 secretagogues, we synthesized and screened 3-arylquinolines as well as related quinolones and quinothiolones for the secretion of Par-4 protein from normal fibroblasts under conditions that are not toxic to the cells.
We screened representative members of each of these heterocyclic families on a compound-by-compound basis for the secretion of Par-4 protein from normal mouse fibroblasts under conditions that were not toxic to the cells. Initial expectations were that these heterocycles would serve as Nutlin-3a surrogates and inhibit MDM2, but studies reported herein established a completely different mechanism of action, reflecting that the structural dissimilarities between these heterocycles and Nutlin-3a outweighed the similarities that led to their initial selection for screening.

For CN(C)c1ccc2cc(-c3ccccc3F)c(N)nc2c1 [Arylquin 1, 3-(2-fluorophenyl)-N^7,N^7-dimethylquinoline-2,7-diamine], the apoptosis (LNCaP) was “not in LNCaP or DU145 cells”, the “Par-4 secretion in serum relative to vehicle control” value (Par-4 in serum) was 5 fold and the “target protein identified by pull-down” value (vimentin) was “Vimentin was the primary target”. For the same compound, the apoptosis (PC-3 cells) was “induced apoptosis”, the Par-4 secretion (vimentin-deficient cells) was “did not further induce Par-4 secretion” and the Par-4 secretion [1] was “failed to induce the secretion of Par-4”. The apoptosis (DU145 cells) was “not in LNCaP or DU145 cells”, the “secretion of Par-4 from normal fibroblasts and epithelial cells” value ([2]; nanomolar concentrations) was “dose-dependent secretion of Par-4 at nanomolar concentrations” and the Par-4 secretion ([2]; normal/immortalized human cells) was “induced robust secretion of Par-4”. The direct apoptosis ([3]; 500 nM) was “did not directly induce apoptosis”, the apoptosis ([3]; 0.5, 1 and 10 μM, 24 h) was “not in normal cells” and the Par-4 secretion ([4]; MEF cells) was “dose-dependent secretion”. For the same compound, the “level of Par-4 secretion, structure-activity comparison among analogs” value ([4]; normal mouse fibroblasts, conditions not toxic to the cells) was “most active; also recorded: highest levels of Par-4 secretion”.
